Laboratory results: ChEMBL document CHEMBL4376896, “Synthesis of Novel Potent Archazolids: Pharmacology of an Emerging Class of Anticancer Drugs” (J Med Chem, 2020)
pIC50, pKi: −log10 of the molar value. In brackets after ≈: the same amount, converted by molar mass. Activity calls are given as the source filed them. No cut-off for these calls is given here.

Tests used:
[1] = Intrinsic clearance in CD1 mouse liver microsomes at 1 uM; type: ADME, Microsome; conditions: read-out: CLH
[2] = Intrinsic clearance in Sprague-Dawley rat liver microsomes at 1 uM; type: ADME, Microsome; conditions: read-out: CLH
[3] = biological target: T1, P2X purinoceptor 3 (Homo sapiens, UniProt P56373); experiment: Inhibition of human P2X3 assessed as reduction in agonist-induced intracellular Ca2+ concentration pre-incubated for 30 mins before agonist addition by calcium 5 dye based fluorescence assay; type: cell-based
T1 sequence (P56373 whole entry): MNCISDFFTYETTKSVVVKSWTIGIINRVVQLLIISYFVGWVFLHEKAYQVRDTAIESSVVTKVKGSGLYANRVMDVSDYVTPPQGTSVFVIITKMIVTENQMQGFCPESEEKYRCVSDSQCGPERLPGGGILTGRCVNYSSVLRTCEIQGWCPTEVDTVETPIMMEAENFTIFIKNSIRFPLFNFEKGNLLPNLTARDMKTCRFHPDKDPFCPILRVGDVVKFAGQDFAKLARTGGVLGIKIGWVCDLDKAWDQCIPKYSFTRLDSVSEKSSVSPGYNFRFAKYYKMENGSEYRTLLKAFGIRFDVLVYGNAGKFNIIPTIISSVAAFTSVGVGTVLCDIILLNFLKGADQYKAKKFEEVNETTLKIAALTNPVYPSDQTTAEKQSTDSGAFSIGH

[4] = biological target: T2, Adenosine receptor A3 (Homo sapiens, UniProt P0DMS8); experiment: Displacement of [3H]PSB-11 from human A3 adenosine receptor expressed in CHO cell membranes incubated for 60 mins by liquid scintillation counting method
T2 sequence (P0DMS8 whole entry): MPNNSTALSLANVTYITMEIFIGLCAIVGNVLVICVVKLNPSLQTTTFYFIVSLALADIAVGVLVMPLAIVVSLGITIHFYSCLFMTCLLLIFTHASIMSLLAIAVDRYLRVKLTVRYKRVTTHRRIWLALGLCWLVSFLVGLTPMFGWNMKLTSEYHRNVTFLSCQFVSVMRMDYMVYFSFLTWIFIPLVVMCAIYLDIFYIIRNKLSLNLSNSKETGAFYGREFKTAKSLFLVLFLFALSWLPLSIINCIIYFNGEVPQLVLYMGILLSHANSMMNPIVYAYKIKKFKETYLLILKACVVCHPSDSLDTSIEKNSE

[5] = biological target: T3, Neutrophil elastase (Homo sapiens, UniProt P08246); experiment: Inhibition of human leukocyte elastase assessed as reduction in pNA release using chromogenic MeO-Suc-Ala-Ala-Pro-Val-pNA substrate measured over 10 mins by spectrophotometry; conditions: read-out: IC50
T3 sequence (P08246 whole entry): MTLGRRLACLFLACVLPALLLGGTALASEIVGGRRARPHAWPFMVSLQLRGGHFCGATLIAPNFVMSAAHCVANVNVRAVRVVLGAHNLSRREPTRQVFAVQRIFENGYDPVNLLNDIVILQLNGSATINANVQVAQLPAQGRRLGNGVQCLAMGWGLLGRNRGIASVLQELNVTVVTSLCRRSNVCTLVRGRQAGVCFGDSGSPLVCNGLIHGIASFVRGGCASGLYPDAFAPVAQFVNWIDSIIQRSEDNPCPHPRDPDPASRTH

[6] = biological target: P2X purinoceptor 3 (Homo sapiens) (UniProt P56373); experiment: Inhibition of human P2X3 expressed in human 1321N1 cell membranes assessed as reduction in ATP-induced inhibition of [35S]ATPgammaS binding at 1 pm to 10 mM
[7] = biological target: Trypsin (Homo sapiens) (UniProt P07477+P07478+P35030); experiment: Inhibition of trypsin (unknown origin) assessed as reduction in pNA release using chromogenic Suc-Ala-Ala-Pro-Arg-pNA substrate measured over 10 mins by spectrophotometry; type: protein assay
[8] = biological target: Cathepsin B (Homo sapiens) (UniProt P07858); experiment: Inhibition of cathepsin B (unknown origin) assessed as reduction in pNA release using chromogenic Z-Arg-Arg-pNA substrate measured over 1 hr by spectrophotometry
[9] = biological target: Procathepsin L (Homo sapiens) (UniProt P07711); experiment: Inhibition of cathepsin L (unknown origin) assessed as reduction in pNA release using chromogenic Z-Phe-Arg-pNA substrate measured over 1 hr by spectrophotometry
[10] = biological target: Chymotrypsin (Homo sapiens) (UniProt Q99895+P17538+P40313+Q6GPI1); experiment: Inhibition of chymotrypsin (unknown origin) assessed as reduction in pNA release using chromogenic Suc-Ala-Ala-Pro-Phe-pNA substrate measured over 12.5 mins by spectrophotometry; type: protein assay
[11] = Intrinsic clearance in human liver microsomes at 1 uM; type: ADME, Microsome; conditions: read-out: CLH
[12] = Half life in CD1 mouse liver microsomes at 1 uM; type: ADME, Microsome
[13] = Half life in Sprague-Dawley rat liver microsomes at 1 uM; type: ADME, Microsome
[14] = Half life in human liver microsomes at 1 uM; type: ADME, Microsome
[15] = Stability in CD1 mouse liver microsomes assessed as drug degradation at 1 uM measured within 15 mins; type: ADME, Microsome; conditions: read-out: Drug degradation
[16] = Stability in Sprague-Dawley rat liver microsomes assessed as drug degradation at 1 uM measured within 15 mins; type: ADME, Microsome; conditions: read-out: Drug degradation
[17] = Stability in human liver microsomes assessed as drug degradation at 1 uM measured within 15 mins; type: ADME, Microsome; conditions: read-out: Drug degradation
[18] = Kinetic aqueous solubility of the compound; type: physicochemical; conditions: buffer; read-out: Kinetic_solubility
[19] = Permeability in human Caco2 cells at 10 uM; type: ADME, cell-based; conditions: caco-2, 10 µM
[20] = biological target: Cytochrome P450 1A2 (Homo sapiens, UniProt P05177); experiment: Inhibition of recombinant human CYP1A2 at 100 nM; type: ADME; conditions: recombinant enzyme, 0.1 µM
[21] = biological target: Cytochrome P450 2B6 (Homo sapiens, UniProt P20813); experiment: Inhibition of recombinant human CYP2B6 at 100 nM; type: ADME; conditions: recombinant enzyme, 0.1 µM
[22] = biological target: T4, Cytochrome P450 2C9 (Homo sapiens, UniProt P11712); experiment: Inhibition of recombinant human CYP2C9 at 100 nM; type: ADME; conditions: recombinant enzyme, 0.1 µM
[23] = biological target: T5, Cytochrome P450 2C19 (Homo sapiens, UniProt P33261); experiment: Inhibition of recombinant human CYP2C19 at 100 nM; type: ADME; conditions: recombinant enzyme, 0.1 µM
[24] = biological target: Cytochrome P450 2D6 (Homo sapiens, UniProt P10635); experiment: Inhibition of recombinant human CYP2D6 at 100 nM; type: ADME; conditions: recombinant enzyme, 0.1 µM
[25] = biological target: T6, Cytochrome P450 3A4 (Homo sapiens, UniProt P08684); experiment: Inhibition of recombinant human CYP3A4 at 100 nM; type: ADME; conditions: recombinant enzyme, 0.1 µM
[26] = biological target: T4, Cytochrome P450 2C9; experiment: Inhibition of recombinant human CYP2C9 at 1 uM; type: ADME; conditions: recombinant enzyme
[27] = biological target: T5, Cytochrome P450 2C19; experiment: Inhibition of recombinant human CYP2C19 at 1 uM; type: ADME; conditions: recombinant enzyme
[28] = biological target: T6, Cytochrome P450 3A4; experiment: Inhibition of recombinant human CYP3A4 at 1 uM; type: ADME; conditions: recombinant enzyme
[29] = cells; conditions: Homo sapiens, 1321-N1, 72 h
Description: Growth inhibition of human 1321N1 cells incubated for 72 hrs by MTT assay

T4 sequence (P11712 whole entry): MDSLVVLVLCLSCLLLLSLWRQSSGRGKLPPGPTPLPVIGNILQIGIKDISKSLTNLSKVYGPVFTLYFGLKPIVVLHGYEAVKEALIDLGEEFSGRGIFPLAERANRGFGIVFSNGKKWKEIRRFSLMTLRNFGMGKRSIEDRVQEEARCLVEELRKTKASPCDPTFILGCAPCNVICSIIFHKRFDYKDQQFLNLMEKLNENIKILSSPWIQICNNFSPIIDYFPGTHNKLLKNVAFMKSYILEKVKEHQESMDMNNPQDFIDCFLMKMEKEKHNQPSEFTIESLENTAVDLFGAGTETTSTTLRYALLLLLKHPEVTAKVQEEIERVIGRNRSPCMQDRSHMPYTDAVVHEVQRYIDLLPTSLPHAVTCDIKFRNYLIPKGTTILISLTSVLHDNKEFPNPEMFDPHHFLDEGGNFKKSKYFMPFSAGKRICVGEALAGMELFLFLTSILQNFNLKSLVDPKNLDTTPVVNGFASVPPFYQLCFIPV
T5 sequence (P33261 whole entry): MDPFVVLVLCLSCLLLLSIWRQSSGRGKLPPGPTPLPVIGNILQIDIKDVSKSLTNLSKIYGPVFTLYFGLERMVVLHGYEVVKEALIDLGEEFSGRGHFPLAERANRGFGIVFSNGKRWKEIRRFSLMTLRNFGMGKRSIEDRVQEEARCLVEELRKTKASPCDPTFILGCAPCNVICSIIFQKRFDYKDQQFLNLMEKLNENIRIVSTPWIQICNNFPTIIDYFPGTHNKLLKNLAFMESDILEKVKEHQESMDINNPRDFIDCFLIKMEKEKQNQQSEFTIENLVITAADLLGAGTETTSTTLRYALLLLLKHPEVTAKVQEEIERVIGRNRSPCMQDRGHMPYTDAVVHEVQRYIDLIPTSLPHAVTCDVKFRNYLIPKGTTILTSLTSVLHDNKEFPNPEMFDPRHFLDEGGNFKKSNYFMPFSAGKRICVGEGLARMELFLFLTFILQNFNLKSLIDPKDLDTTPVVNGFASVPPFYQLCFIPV
T6 sequence (P08684 whole entry): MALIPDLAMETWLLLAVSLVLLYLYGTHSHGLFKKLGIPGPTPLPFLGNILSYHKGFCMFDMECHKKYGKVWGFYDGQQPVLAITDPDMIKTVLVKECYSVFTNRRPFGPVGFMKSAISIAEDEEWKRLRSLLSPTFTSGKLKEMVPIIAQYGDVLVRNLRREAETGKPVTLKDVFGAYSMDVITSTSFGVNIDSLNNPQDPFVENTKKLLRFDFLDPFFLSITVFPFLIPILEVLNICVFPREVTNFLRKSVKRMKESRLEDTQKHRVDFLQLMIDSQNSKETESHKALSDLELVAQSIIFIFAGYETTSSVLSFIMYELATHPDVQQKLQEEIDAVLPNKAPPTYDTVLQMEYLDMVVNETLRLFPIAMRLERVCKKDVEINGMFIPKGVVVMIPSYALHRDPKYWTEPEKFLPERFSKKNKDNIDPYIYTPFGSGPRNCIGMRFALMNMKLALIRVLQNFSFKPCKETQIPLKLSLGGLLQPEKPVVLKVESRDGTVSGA
Sequence of Procathepsin L (Homo sapiens) (P07711 114-333 limits assumed): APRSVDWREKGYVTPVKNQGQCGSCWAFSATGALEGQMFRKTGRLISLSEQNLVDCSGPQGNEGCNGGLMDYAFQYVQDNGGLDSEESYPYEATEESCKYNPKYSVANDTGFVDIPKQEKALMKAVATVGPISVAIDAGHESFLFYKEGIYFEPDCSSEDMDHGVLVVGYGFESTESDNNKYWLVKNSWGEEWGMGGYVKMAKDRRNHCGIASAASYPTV
Sequence of Cytochrome P450 1A2 (P05177 whole entry): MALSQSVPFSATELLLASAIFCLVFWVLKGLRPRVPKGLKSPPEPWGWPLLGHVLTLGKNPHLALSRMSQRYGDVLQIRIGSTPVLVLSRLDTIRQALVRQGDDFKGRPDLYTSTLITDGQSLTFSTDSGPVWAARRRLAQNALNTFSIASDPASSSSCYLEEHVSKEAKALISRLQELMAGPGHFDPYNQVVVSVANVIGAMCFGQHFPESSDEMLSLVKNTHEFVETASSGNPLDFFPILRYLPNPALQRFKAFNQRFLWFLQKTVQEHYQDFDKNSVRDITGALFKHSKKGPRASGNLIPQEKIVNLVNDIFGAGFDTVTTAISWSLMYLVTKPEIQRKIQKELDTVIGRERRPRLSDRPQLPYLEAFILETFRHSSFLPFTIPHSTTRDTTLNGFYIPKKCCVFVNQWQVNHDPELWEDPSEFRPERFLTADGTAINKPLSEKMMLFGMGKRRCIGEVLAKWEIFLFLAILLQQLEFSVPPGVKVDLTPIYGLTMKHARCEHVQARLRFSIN
Sequence of Cytochrome P450 2D6 (P10635 whole entry): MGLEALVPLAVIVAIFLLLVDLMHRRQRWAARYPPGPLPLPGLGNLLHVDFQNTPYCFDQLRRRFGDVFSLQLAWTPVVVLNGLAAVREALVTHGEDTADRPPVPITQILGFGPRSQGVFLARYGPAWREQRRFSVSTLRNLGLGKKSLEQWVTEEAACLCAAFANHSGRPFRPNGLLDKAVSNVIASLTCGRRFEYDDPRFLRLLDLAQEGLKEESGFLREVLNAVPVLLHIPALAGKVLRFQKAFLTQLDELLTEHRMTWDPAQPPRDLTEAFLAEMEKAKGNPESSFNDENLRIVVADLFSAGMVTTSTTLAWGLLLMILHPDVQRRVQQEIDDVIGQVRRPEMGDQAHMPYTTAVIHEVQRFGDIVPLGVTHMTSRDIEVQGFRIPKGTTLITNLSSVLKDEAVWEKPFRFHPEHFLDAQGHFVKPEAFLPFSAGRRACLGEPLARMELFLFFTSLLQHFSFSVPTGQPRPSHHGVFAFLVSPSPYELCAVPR
Sequence of Cytochrome P450 2B6 (P20813 whole entry): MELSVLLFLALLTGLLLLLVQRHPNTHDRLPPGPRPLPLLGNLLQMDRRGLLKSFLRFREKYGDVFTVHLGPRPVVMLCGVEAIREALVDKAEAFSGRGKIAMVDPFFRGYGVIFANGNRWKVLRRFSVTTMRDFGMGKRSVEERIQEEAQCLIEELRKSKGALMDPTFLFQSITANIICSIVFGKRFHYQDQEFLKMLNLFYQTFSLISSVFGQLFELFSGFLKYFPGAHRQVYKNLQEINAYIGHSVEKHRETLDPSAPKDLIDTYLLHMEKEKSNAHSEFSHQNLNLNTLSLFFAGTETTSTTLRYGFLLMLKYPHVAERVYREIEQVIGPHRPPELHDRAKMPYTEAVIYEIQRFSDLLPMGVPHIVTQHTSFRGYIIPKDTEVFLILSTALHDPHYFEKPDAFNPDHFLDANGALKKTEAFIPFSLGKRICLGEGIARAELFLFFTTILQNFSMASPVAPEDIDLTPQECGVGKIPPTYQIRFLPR

Molecule `CNC(=O)O[C@@H](CC(C)C)c1nc([C@H]2OC(=O)/C=C/C/C(C)=C/[C@@H](O)[C@@H](C)\C=C(C)/C=C(C)\C=C\[C@@H](O)[C@H](C)[C@H](OC)/C(C)=C/C=C/[C@@H]2C)cs1` [ARCHAZOLID B] has a microsomal CLint at 1 µM [1] of 495 µL/min/mg, a microsomal CLint at 1 µM [2] of 301 µL/min/mg and a pIC50 [3] of 6.45. The pKi [4] was 5.93, the pIC50 [5] was 6.50 and the inhibition [6] was “inactive”. The inhibition [7] was “inactive”, the inhibition [8] was “inactive” and the inhibition [9] was “inactive”. For the same molecule, the inhibition [10] was “inactive”, the microsomal CLint at 1 µM [11] was 533 µL/min/mg and the half-life at 1 µM [12] was 2.8 min. For the same molecule, the half-life at 1 µM [13] was 4.6 min, the half-life at 1 µM [14] was 2.6 min and the metabolised at 0.25 h, 1 µM [15] was 100%. The metabolised at 0.25 h, 1 µM [16] was 100%, the metabolised at 0.25 h, 1 µM [17] was 100% and the solubility kinetic [18] was 1.6 µM (≈ 1.16 µg/mL). The permeability [19] was “Impermeable”, the “inhibition (INH)” value [20] was “Active” and the “inhibition (INH)” value [21] was “Active”. The “inhibition (INH)” value [22] was “Active”, the “inhibition (INH)” value [23] was “Active” and the “inhibition (INH)” value [24] was “Active”. The “inhibition (INH)” value [25] was “Active”, the “inhibition (INH)” value [26] was “Active” and the “inhibition (INH)” value [27] was “Active”. The “inhibition (INH)” value [28] was “Active” and the pIC50 [29] was 9.84.
